EP4745135A1 (Gluetacs Therapeutics (Shanghai) Co., Ltd., priority 2023, dated 2025)

What was measured:
CK1α = biological target: T1, CK1α (Homo sapiens, UniProt P48729+Q96SW2); assay: Western blot, degradation of substrate protein in hPBMCs; assay type: cell-based
T1 construct: effects of the compounds of the present disclosure on the expression of target proteins in cells; endogenous in cells; host or cells: human PBMCs (Milecell Biotechnologies)

IKZF1 = biological target: T2, IKZF1 (Homo sapiens, UniProt Q13422+Q96SW2); assay: as above; assay type: cell-based
T2 construct: effects of the compounds of the present disclosure on the expression of target proteins in cells; endogenous in cells; host or cells: human PBMCs (Milecell Biotechnologies)
T2 sequence (Q13422 whole entry): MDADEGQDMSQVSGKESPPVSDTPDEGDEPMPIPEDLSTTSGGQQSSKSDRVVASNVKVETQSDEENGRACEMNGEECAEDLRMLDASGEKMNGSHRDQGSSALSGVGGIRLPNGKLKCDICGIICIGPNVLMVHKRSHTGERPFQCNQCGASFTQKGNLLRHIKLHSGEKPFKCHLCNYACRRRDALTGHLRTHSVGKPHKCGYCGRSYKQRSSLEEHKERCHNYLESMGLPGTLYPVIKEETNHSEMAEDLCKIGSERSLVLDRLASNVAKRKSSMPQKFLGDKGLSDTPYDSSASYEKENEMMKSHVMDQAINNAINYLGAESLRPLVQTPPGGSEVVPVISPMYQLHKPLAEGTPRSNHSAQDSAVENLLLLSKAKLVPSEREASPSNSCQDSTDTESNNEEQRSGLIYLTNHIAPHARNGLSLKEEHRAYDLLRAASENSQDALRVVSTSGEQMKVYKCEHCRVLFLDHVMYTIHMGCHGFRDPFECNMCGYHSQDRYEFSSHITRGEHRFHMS
T2 sequence (Q96SW2 whole entry): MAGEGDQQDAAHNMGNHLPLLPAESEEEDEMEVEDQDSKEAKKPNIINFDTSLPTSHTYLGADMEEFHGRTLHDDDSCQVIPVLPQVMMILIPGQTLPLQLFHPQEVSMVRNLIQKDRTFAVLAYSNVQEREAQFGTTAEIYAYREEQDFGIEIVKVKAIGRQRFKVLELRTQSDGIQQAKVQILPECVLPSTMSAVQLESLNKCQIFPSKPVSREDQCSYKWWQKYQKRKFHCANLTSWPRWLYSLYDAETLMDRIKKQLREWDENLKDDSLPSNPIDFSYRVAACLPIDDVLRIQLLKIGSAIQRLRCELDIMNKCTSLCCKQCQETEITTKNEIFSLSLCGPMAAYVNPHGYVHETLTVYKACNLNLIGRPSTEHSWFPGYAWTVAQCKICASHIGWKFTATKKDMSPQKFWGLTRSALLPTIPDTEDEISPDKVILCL
T2 sequence (Q16531 whole entry partner): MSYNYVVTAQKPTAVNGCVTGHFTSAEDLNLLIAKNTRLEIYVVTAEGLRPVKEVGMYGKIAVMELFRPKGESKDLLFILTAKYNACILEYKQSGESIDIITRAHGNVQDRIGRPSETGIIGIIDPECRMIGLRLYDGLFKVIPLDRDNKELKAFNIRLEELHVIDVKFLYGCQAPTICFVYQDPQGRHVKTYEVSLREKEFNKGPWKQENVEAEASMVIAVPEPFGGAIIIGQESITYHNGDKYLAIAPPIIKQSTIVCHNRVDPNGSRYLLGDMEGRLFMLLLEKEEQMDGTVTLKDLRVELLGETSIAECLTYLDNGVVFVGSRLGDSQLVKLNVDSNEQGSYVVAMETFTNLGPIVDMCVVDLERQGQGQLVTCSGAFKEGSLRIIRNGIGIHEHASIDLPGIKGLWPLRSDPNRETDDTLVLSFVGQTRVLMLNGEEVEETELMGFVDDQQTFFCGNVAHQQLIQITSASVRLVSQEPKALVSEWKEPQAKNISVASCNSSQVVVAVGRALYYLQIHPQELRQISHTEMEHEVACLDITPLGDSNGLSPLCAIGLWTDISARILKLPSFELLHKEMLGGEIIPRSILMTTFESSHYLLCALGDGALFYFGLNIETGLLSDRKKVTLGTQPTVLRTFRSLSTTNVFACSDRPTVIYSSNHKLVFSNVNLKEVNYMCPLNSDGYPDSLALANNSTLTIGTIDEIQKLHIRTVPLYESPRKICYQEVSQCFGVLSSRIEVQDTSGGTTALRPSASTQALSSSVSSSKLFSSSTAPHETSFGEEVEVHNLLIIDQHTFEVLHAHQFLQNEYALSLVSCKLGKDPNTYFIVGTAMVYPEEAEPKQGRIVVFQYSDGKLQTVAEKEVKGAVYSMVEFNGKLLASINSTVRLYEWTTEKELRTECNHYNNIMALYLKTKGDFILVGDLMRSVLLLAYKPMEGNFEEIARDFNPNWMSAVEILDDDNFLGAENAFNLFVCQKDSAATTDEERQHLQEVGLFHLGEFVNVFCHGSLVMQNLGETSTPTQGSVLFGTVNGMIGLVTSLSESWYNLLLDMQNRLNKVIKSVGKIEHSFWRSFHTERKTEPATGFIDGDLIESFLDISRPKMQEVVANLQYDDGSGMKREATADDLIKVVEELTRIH

IKZF2 = biological target: T3, IKZF2 (Homo sapiens, UniProt Q96SW2+Q9UKS7); assay: as above; assay type: cell-based
T3 construct: effects of the compounds of the present disclosure on the expression of target proteins in cells; endogenous in cells; host or cells: human PBMCs (Milecell Biotechnologies)
T3 sequence (Q9UKS7 whole entry): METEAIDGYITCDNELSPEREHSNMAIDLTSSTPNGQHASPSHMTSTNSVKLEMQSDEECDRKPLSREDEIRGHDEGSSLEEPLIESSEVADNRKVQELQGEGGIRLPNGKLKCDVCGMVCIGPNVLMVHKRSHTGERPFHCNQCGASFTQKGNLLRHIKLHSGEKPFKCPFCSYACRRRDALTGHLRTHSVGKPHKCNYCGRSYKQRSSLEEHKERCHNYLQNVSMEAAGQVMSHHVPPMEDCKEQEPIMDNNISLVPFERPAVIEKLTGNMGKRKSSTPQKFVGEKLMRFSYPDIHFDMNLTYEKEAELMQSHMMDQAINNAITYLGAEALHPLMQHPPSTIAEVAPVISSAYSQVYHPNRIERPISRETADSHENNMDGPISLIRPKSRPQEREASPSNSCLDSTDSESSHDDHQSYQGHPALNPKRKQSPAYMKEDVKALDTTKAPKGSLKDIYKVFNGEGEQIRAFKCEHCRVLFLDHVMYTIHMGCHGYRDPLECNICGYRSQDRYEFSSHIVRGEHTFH
T3 sequence (Q96SW2 whole entry): as the sequence (Q96SW2 whole entry) above
T3 sequence (Q16531 whole entry partner): as the sequence (Q16531 whole entry partner) above

IKZF3 = biological target: T4, IKZF3 (Homo sapiens, UniProt Q96SW2+Q9UKT9); assay: as above; assay type: cell-based
T4 construct: effects of the compounds of the present disclosure on the expression of target proteins in cells; endogenous in cells; host or cells: human PBMCs (Milecell Biotechnologies)
T4 sequence (Q9UKT9 whole entry): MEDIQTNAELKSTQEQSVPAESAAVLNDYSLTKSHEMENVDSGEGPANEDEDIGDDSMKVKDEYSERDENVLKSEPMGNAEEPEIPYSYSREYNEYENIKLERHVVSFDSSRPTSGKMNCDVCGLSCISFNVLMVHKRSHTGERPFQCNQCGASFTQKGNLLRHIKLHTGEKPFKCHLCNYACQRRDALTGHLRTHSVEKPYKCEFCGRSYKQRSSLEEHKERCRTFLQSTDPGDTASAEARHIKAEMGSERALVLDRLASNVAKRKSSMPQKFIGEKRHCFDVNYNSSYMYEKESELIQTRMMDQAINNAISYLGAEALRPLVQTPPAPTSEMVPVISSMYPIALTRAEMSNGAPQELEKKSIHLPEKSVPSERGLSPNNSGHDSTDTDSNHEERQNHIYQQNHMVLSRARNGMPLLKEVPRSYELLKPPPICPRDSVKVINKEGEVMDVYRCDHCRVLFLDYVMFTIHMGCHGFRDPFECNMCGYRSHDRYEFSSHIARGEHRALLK
T4 sequence (Q96SW2 whole entry): as the sequence (Q96SW2 whole entry) above
T4 sequence (Q16531 whole entry partner): as the sequence (Q16531 whole entry partner) above

WEE1 = biological target: T5, WEE1 (Homo sapiens, UniProt P30291+Q96SW2); assay: as above; assay type: cell-based
T5 construct: effects of the compounds of the present disclosure on the expression of target proteins in cells; endogenous in cells; host or cells: human PBMCs (Milecell Biotechnologies)
T5 sequence (P30291 whole entry): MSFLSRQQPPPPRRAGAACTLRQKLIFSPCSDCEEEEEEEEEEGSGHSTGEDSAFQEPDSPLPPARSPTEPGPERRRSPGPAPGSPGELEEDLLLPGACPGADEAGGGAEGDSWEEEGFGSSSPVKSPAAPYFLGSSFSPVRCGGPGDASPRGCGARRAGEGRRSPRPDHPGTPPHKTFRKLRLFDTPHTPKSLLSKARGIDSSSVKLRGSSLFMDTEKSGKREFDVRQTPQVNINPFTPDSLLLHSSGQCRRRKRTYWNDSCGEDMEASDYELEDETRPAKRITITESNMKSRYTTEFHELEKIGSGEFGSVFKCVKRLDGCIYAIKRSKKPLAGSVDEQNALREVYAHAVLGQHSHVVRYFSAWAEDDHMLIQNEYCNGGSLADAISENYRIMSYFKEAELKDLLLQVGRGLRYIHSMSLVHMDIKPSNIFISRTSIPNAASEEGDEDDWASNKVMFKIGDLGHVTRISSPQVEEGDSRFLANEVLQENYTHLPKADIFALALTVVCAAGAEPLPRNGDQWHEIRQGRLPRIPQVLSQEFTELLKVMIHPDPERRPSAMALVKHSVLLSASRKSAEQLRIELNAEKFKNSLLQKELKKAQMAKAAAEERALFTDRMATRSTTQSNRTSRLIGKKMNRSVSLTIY
T5 sequence (Q96SW2 whole entry): as the sequence (Q96SW2 whole entry) above
T5 sequence (Q16531 whole entry partner): as the sequence (Q16531 whole entry partner) above

GSPT1 = assay: as above; assay type: cell-based, Human
[1] = biological target: T6, human Cereblon WT GST-tagged protein (Homo sapiens, UniProt Q96SW2); assay: CRBN-binding affinity, HTRF (CEREBLON BINDING kit); details: for inhibition at 0.5 µM: read-out: Inhibition Rate at 0.5 µM (%); for inhibition at 2 µM: read-out: Inhibition Rate at 2 µM (%); for IC50: CRBN binding, HTRF, 3 hours at room temperature, read-out: HTRF IC50
T6 construct: purchased CISBIO 64BDCRBNPEH
T6 sequence (Q96SW2 whole entry): as the sequence (Q96SW2 whole entry) above

[2] = tested on: Human multiple myeloma cell (MM.1S); assay: Tumor cell proliferation inhibition (CellTiter-Meiluncell luminescent cell viability assay); details: for inhibition at 0.01 µM / inhibition at 0.5 µM / IC50: Homo sapiens, MM1.S, 96 h; for inhibition at 0.01 µM: read-out: Inhibition Rate at 10 nM (%); for inhibition at 0.5 µM: read-out: Inhibition Rate at 500 nM (%); for IC50: read-out: Inhibitory activity (IC50, nM) on tumor cell proliferation, MM.1S
[3] = Western blot, 24 hours of compound treatment, compounds tested at 50 nM and 500 nM (concentration for the table not stated)
[4] = 24 hours treatment, compounds at 50 nM and 500 nM (concentration behind the class not stated)

T1 sequence (P48729 whole entry): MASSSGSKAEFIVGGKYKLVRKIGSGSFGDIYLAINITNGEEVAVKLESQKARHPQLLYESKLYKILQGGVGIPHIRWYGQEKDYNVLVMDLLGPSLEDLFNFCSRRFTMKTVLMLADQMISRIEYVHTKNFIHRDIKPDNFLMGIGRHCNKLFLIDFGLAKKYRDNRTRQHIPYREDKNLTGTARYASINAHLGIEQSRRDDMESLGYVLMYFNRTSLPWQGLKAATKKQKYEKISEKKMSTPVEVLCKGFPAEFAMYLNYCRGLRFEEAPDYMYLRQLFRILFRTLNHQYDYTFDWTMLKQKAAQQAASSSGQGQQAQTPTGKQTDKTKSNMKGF
T1 sequence (Q96SW2 whole entry): as the sequence (Q96SW2 whole entry) above
T1 sequence (Q16531 whole entry partner): as the sequence (Q16531 whole entry partner) above

| Compound | CK1α substrate protein remaining % (CK1α; [3]) | IKZF 1 substrate protein remaining % (IKZF1; [3]) | IKZF2 substrate protein remaining % (IKZF2; [3]) | IKZF3 substrate protein remaining % (IKZF3; [3]) | Wee1 substrate protein remaining % (WEE1; [3]) | GSPT1 substrate protein remaining % (GSPT1; [3]) | inhibition at 0.5 µM [1] [%] | inhibition at 2 µM [1] [%] | inhibition at 0.01 µM [2] [%] | inhibition at 0.5 µM [2] [%] | Inhibition Rate at 500 nM (%) ([2]; MM.1S, 96 hours) | Inhibition Rate at 10 nM (%) ([2]; MM.1S, 10 nM, 96 hours) [la6] | IC50 [1] [nM] | IC50 [2] [nM] | CK1α substrate protein remaining % (CK1α; [4]) | IKZF 1 substrate protein remaining % (IKZF1; [4]) | IKZF2 substrate protein remaining % (IKZF2; [4]) | IKZF3 substrate protein remaining % (IKZF3; [4]) | Wee1 substrate protein remaining % (WEE1; [4]) | GSPT1 substrate protein remaining % (GSPT1; [4]) |
| --- | --- | --- | --- | --- | --- | --- | --- | --- | --- | --- | --- | --- | --- | --- | --- | --- | --- | --- | --- | --- |
| O=C1CCC(N2Cc3cc(CN4CC5CC(C4)N5c4cccc(Cl)c4Cl)ccc3C2=S)C(=O)N1 (stereo not drawn) [GT-08476, 3-(5-((6-(2,3-dichlorophenyl)-3,6-diazabicyclo[3.1.1]heptan-3-yl)methyl)-1-thioxoisoindolin-2-yl)piperidine-2,6-dione] | B (80%< substrate protein remaining %≤ 100%) | B (80%< substrate protein remaining %≤ 100%) | B (80%< substrate protein remaining %≤ 100%) | A (0% ≤ substrate protein remaining % ≤ 80%) | B (80%< substrate protein remaining %≤ 100%) | B (80%< substrate protein remaining %≤ 100%) | 60 to 80 | 80 to 100 | 5 to 10 | 40 to 50 | – | – | – | – | – | – | – | – | – | – |
| O=C1CCC(N2Cc3c(CN4C[C@H]5C[C@@H]4CN5c4cccc(Cl)c4Cl)cccc3C2=S)C(=O)N1 (stereo in doubt) [GT-08467, 3-(4-(((1R,4R)-5-(2,3-dichlorophenyl)-2,5-diazabicyclo[2.2.1]heptan-2-yl)methyl)-1-thioxoisoindolin-2-yl)piperidine-2,6-dione] | B (80%< substrate protein remaining %≤ 100%) | B (80%< substrate protein remaining %≤ 100%) | A (0% ≤ substrate protein remaining % ≤ 80%) | B (80%< substrate protein remaining %≤ 100%) | B (80%< substrate protein remaining %≤ 100%) | A (0% ≤ substrate protein remaining % ≤ 80%) | 30 to 40 | 60 to 80 | 10 to 20 | – | la7 | – | – | – | – | – | – | – | – | – |
| O=C1CCC(N2Cc3c(CN4CCN(c5cc(Cl)ccn5)CC4)cccc3C2=S)C(=O)N1 (stereo not drawn) [GT-08695, 3-(4-((4-(4-chloropyridin-2-yl)piperazin-1-yl)methyl)-1-thioxoisoindolin-2-yl)piperidine-2,6-dione] | B (80%< substrate protein remaining %≤ 100%) | B (80%< substrate protein remaining %≤ 100%) | B (80%< substrate protein remaining %≤ 100%) | B (80%< substrate protein remaining %≤ 100%) | A (0% ≤ substrate protein remaining % ≤ 80%) | B (80%< substrate protein remaining %≤ 100%) | 60 to 80 | 80 to 100 | 20 to 30 | 40 to 50 | – | – | – | – | – | – | – | – | – | – |
| O=C1CCC(N2Cc3cc(CN4CC5CCC4CN5c4cccc(Cl)c4Cl)ccc3C2=S)C(=O)N1 (stereo not drawn) [GT-08478, 3-(5-((5-(2,3-dichlorophenyl)-2,5-diazabicyclo[2.2.2]octan-2-yl)methyl)-1-thioxoisoindolin-2-yl)piperidine-2,6-dione] | B (80%< substrate protein remaining %≤ 100%) | B (80%< substrate protein remaining %≤ 100%) | B (80%< substrate protein remaining %≤ 100%) | B (80%< substrate protein remaining %≤ 100%) | B (80%< substrate protein remaining %≤ 100%) | A (0% ≤ substrate protein remaining % ≤ 80%) | 40 to 53 | 80 to 100 | 40 to 50 | 50 to 60 | – | – | – | – | – | – | – | – | – | – |
| O=C1CCC(N2Cc3cc(CN4CCN(c5ccccc5Br)CC4)ccc3C2=S)C(=O)N1 (stereo not drawn) [GT-08242, 3-(5-((4-(2-bromophenyl)piperazin-1-yl)methyl)-1-thioxoisoindolin-2-yl)piperidine-2,6-dione] | B (80%< substrate protein remaining %≤ 100%) | B (80%< substrate protein remaining %≤ 100%) | B (80%< substrate protein remaining %≤ 100%) | B (80%< substrate protein remaining %≤ 100%) | B (80%< substrate protein remaining %≤ 100%) | A (0% ≤ substrate protein remaining % ≤ 80%) | 40 to 53 | 80 to 100 | 30 to 40 | – | la8 | – | – | – | – | – | – | – | – | – |
| COc1cccc(N2CCN(Cc3ccc4c(c3)CN(C3CCC(=O)NC3=O)C4=S)CC2)c1 (stereo not drawn) [GT-08237, 3-(5-((4-(3-methoxyphenyl)piperazin-1-yl)methyl)-1-thioxoisoindolin-2-yl)piperidine-2,6-dione] | B (80%< substrate protein remaining %≤ 100%) | B (80%< substrate protein remaining %≤ 100%) | B (80%< substrate protein remaining %≤ 100%) | B (80%< substrate protein remaining %≤ 100%) | B (80%< substrate protein remaining %≤ 100%) | A (0% ≤ substrate protein remaining % ≤ 80%) | 53 to 60 | 80 to 100 | – | 40 to 50 | – | 1 | – | – | – | – | – | – | – | – |
| O=C1CCC(N2Cc3cc(CN4CCC(c5cccc(C(F)(F)F)c5)CC4)ccc3C2=S)C(=O)N1 (stereo not drawn) [GT-08623, 3-(1-thioxo-5-((4-(3-(trifluoromethyl)phenyl)piperidin-1-yl)methyl)isoindolin-2-yl)piperidine-2,6-dione] | B (80%< substrate protein remaining %≤ 100%) | B (80%< substrate protein remaining %≤ 100%) | A (0% ≤ substrate protein remaining % ≤ 80%) | B (80%< substrate protein remaining %≤ 100%) | B (80%< substrate protein remaining %≤ 100%) | B (80%< substrate protein remaining %≤ 100%) | 40 to 53 | 80 to 100 | 30 to 40 | 40 to 50 | – | – | – | – | – | – | – | – | – | – |
| Cc1ccc(C2CCN(Cc3ccc4c(c3)CN(C3CCC(=O)NC3=O)C4=S)CC2)s1 (stereo not drawn) [GT-05112, 3-(5-((4-(5-methylthiophen-2-yl)piperidin-1-yl)methyl)-1-thioxoisoindolin-2-yl)piperidine-2,6-dione] | B (80%< substrate protein remaining %≤ 100%) | A (0% ≤ substrate protein remaining % ≤ 80%) | B (80%< substrate protein remaining %≤ 100%) | A (0% ≤ substrate protein remaining % ≤ 80%) | B (80%< substrate protein remaining %≤ 100%) | A (0% ≤ substrate protein remaining % ≤ 80%) | – | – | – | – | – | – | 100 to 500 | 50 to 100 | – | – | – | – | – | – |
| O=C1CCC(N2Cc3cc(CN4C5CC4CN(c4cccc(Cl)c4Cl)C5)ccc3C2=S)C(=O)N1 (stereo not drawn) [GT-05182, 3-(5-((3-(2,3-dichlorophenyl)-3,6-diazabicyclo[3.1.1]heptan-6-yl)methyl)-1-thioxoisoindolin-2-yl)piperidine-2,6-dione] | B (80%< substrate protein remaining %≤ 100%) | B (80%< substrate protein remaining %≤ 100%) | B (80%< substrate protein remaining %≤ 100%) | B (80%< substrate protein remaining %≤ 100%) | A (0% ≤ substrate protein remaining % ≤ 80%) | A (0% ≤ substrate protein remaining % ≤ 80%) | – | – | – | – | – | – | 100 to 500 | 100 to 500 | – | – | – | – | – | – |
| O=C1CCC(N2Cc3c(CN4CC=C(c5ncnc6sc7c(c56)CCCC7)CC4)cccc3C2=S)C(=O)N1 (stereo not drawn) [GT-08962, 3-(4-((4-(5,6,7,8-tetrahydrobenzo[4,5]thieno[2,3-d]pyrimidin-4-yl)-3,6-dihydropyridin-1(2H)-yl)methyl)-1-thioxoisoindolin-2-yl)piperidine-2,6-dione] | – | – | – | – | – | – | 40 to 53 | 80 to 100 | 30 to 40 | 40 to 50 | – | – | – | – | B (80%< substrate protein remaining %≤ 100%) | B (80%< substrate protein remaining %≤ 100%) | B (80%< substrate protein remaining %≤ 100%) | B (80%< substrate protein remaining %≤ 100%) | A (0% ≤ substrate protein remaining % ≤ 80%) | A (0% ≤ substrate protein remaining % ≤ 80%) |
